The nature of data set [1]: Test of thermal stability in the solid state - appearance. It is filed as physicochemical. The protocol:
Test of thermal stability in the solid state
(§1) The base and the fumarate salt of the compound of formula (I) are analyzed after 1, 7 and 14 days of storage at: • 80° C.; • 80° C. and under 80% relative humidity (RH). Appearance
In contrast, the appearance of the fumarate salt of the compound of formula (I) remains unchanged.

The nature of data set [2]: Instantaneous solubility tests. Type of data set: physicochemical. As for the experimental part:
The instantaneous solubilities of the base and of the fumarate salt of the compound of formula (I) were determined in the following media: • water; • buffer pH 1.2: 0.01M KH2PO4, pH adjusted with orthophosphoric acid; • buffer pH 7.2: 0.2M KH2PO4, pH adjusted with KOH; • buffer pH 9.0: 0.04M Na2B4O7.10H2O, pH adjusted with boric acid; • dimethyl sulfoxide (DMSO).
Determination of the instantaneous solubilities: successive volumes of the medium are added to the test specimen until the compound has dissolved. Stirring is carried out with a vortex mixer at ambient temperature.
Information on the corresponding classification according to the European Pharmacopoeia is also given therein.

The nature of data set [3]: Thermal stability in the solid state - quantitative determination of nondecomposed product and impurities by HPLC. The following applies: for Sum % imp. quantified (% surf.): HPLC UV 220 nm; for Non-decomposed base / product (%): HPLC, % (w/w) of nondecomposed base. Type of data set: physicochemical. The protocol:
as §1
Quantitative Determination of the Nondecomposed Product and Percentage of Impurities
Chromatographic Conditions
Column: Inertsil ODS 3 150×4.6 mm, 5 μm, maintained at 25° C.
Buffer pH 4.5: 0.01M KH2PO4, 0.5 g/l sodium heptanesulfonate pH adjusted to 4.5 with 1M KOH
Phase A: 90 V buffer pH 4.5
• 10 V acetonitrile Phase B: 20 V buffer pH 4.5 • 80 V acetonitrile Gradient: from 100% of phase A to 80% of phase B in 40 min Flow rate: 1.0 ml/min Detection: UV, λ=220 nm (optical path: 1 cm) Solutions injected: 0.2 mg (base or salt)/ml solutions in a mixture of 50 volumes of water and 50 volumes of acetonitrile. Comment: for the quantitative determinations, the results obtained are expressed in % (w/w) of nondecomposed base (by calibrating with nondecomposed base or salt controls stored at ambient temperature).
Comment: the sum of the impurities quantified may be less after storing at 80° C. under 80% relative humidity because impurities may decompose to give products which cannot be detected by UV or which are not separated by the analytical conditions.

Data set [4] is classed as physicochemical. An excerpt:
In contrast, the fumarate salt of 4-bromophenyl 1,4-diazabicyclo[3.2.2]nonane-4-carboxylate crystallizes in two nonhygroscopic polymorphic forms (forms I and II). […] This property of the two polymorphic forms of the fumarate salt of 4-bromophenyl 1,4-diazabicyclo[3.2.2]nonane-4-carboxylate is an advantage in comparison with the hydrochloride salt of 4-bromophenyl 1,4-diazabicyclo[3.2.2]nonane-4-carboxylate.

The mark [5] stands for this setting: solid state, 80° C./80% RH, 1 d.
The mark [6] stands for this setting: solid state, 80° C./80% RH, 7 d.
Setting [7] is: solid state, 80° C./80% RH, 14 d.
[8] abbreviates: buffer pH 1.2, ambient temperature.
The mark [9] stands for this setting: buffer pH 7.2, ambient temperature.
Where [10] appears, read: buffer pH 9.0, ambient temperature.

Results on four molecules are retold here after patent US8569289B2, “Fumarate salt of 4-bromophenyl 1,4-diazabicyclo[3.2.2]nonane-4-carboxylate, crystalline forms thereof, preparation thereof and therapeutic use thereof” (Sanofi, priority 2008, dated 2013).

Molecules are shown by their SMILES.

Regarding `O=C(Oc1ccc(Br)cc1)N1CCN2CCC1CC2` [Base, 4-Bromophenyl 1,4-diazabicyclo[3.2.2]nonane-4-carboxylate], the Appearance entry in data set [1] (Initial appearance) was “Virtually white”; in data set [1] (solid state, 80° C., 1 d) it was “Pale yellow”; in data set [1] (solid state, 80° C., 7 d) it was “Pale yellow”; in data set [1] (solid state, 80° C., 14 d), “Pale yellow”; in data set [1] (setting [5]), “Yellow-brown”; in data set [1] (setting [6]) it was “Brown”. Besides, the Appearance entry in data set [1] (setting [7]) is given as “Brown”. Also, the “Solubility classification according to the European Pharmacopoeia” value in data set [2] (DMSO) was “Soluble”; in data set [2] (Water), “Slightly soluble”; in data set [2] (buffer pH 1.2) it was “Freely soluble”; in data set [2] (buffer pH 7.2) it was “Slightly soluble”; in data set [2] (buffer pH 9.0), “Slightly soluble”. Also, the Instantaneous solubility in data set [2] (DMSO, ambient temperature) is ~75 g of product/l; in data set [2] (Water, ambient temperature), <2 g of product/l; in data set [2] (setting [8]), 140 g of product/l; in data set [2] (setting [9]), <2 g of product/l; in data set [2] (setting [10]) it was <2 g of product/l. Moreover, the “Sum % imp. quantified (% surf.)” value is 4.02 % surf in data set [3] (Initial); 3.57 % surf in data set [3] (solid state, 80° C., 7 d); 3.14 % surf in data set [3] (solid state, 80° C., 14 d); 4.37 % surf in data set [3] (setting [6]); 4.53 % surf in data set [3] (setting [7]). The “Non-decomposed base / product (%)” value is on record as 100% in data set [3] (solid state, 80° C., 7 d); 99.9% in data set [3] (solid state, 80° C., 14 d); 98.7% in data set [3] (setting [6]); 98.3% in data set [3] (setting [7]).
For the molecule `O=C(O)/C=C/C(=O)O.O=C(Oc1ccc(Br)cc1)N1CCN2CCC1CC2` [Fumarate, fumarate salt of 4-bromophenyl 1,4-diazabicyclo[3.2.2]nonane-4-carboxylate], the Appearance entry is on record as “White powder” in data set [1] (Initial appearance); “unchanged” in data set [1] (solid state, 80° C., 1 d); “unchanged” in data set [1] (solid state, 80° C., 7 d); “unchanged” in data set [1] (solid state, 80° C., 14 d); “unchanged” in data set [1] (setting [5]); “unchanged” in data set [1] (setting [6]). Moreover, in data set [1] (setting [7]), the Appearance result was “unchanged”. Further, the “Solubility classification according to the European Pharmacopoeia” value in data set [2] (DMSO) was “Freely soluble”; in data set [2] (Water) it was “Sparingly soluble”; in data set [2] (buffer pH 1.2), “Sparingly soluble”; in data set [2] (buffer pH 7.2), “Soluble”; in data set [2] (buffer pH 9.0), “Soluble”. The Instantaneous solubility in data set [2] (DMSO, ambient temperature) is listed as ~140 g of product/l; in data set [2] (Water, ambient temperature) it was ~27 g of product/l; in data set [2] (setting [8]), ~16 g of product/l; in data set [2] (setting [9]), ~75 g of product/l; in data set [2] (setting [10]), ~68 g of product/l. For the same molecule, the “Sum % imp. quantified (% surf.)” value in data set [3] (Initial) worked out at 0.32 % surf; in data set [3] (solid state, 80° C., 7 d) it was 0.60 % surf; in data set [3] (solid state, 80° C., 14 d), 0.53 % surf; in data set [3] (setting [6]), 0.74 % surf; in data set [3] (setting [7]), 0.83 % surf. For the same molecule, the “Non-decomposed base / product (%)” value in data set [3] (solid state, 80° C., 7 d) was 99.6%; in data set [3] (solid state, 80° C., 14 d), 100%; in data set [3] (setting [6]), 99.7%; in data set [3] (setting [7]), 100%.
In the case of `O=C(O)/C=C/C(=O)O.O=C(Oc1ccc(Br)cc1)N1CCN2CCC1CC2` [form I, fumarate salt of 4-bromophenyl 1,4-diazabicyclo[3.2.2]nonane-4-carboxylate], the “Hygroscopicity of the polymorphic form” value in data set [4] is “nonhygroscopic”. In addition, the “Impact of water on the crystalline form” value in data set [4] (water in the vapor or liquid form) is listed as “no impact on the crystalline form”.
On to `Cl.O=C(Oc1ccc(Br)cc1)N1CCN2CCC1CC2` [hydrochloride, hydrochloride salt of 4-bromophenyl 1,4-diazabicyclo[3.2.2]nonane-4-carboxylate], for which, in data set [4], the “Forms shown by the water sorption/desorption isotherm” value was “present in a hemihydrate form and two anhydrous forms”. Also, the “Stability of the water stoichiometry” value in data set [4] (under the effect of temperature or when flushing with nitrogen) is “has a tendency to lose its water stoichiometry”.
